Experimental data published in ChEMBL document CHEMBL1124404, “Conformationally restricted and conformationally defined tyramine analogues as inhibitors of phenylethanolamine N-methyltransferase” (J Med Chem, 1989).

Target: T1, Phenylethanolamine N-methyltransferase (Bos taurus, UniProt P10938)
T1 sequence (P10938 whole entry): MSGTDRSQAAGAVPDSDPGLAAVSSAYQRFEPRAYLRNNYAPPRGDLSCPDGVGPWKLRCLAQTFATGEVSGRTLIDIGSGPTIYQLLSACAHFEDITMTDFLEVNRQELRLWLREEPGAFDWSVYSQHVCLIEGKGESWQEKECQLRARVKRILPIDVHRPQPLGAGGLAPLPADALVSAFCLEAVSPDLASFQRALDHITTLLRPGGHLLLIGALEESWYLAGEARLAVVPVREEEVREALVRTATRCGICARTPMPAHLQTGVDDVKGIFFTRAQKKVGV
Test: The compound was tested for In vitro inhibitory activity against Phenylethanolamine N-Methyltransferase (PNMT)

Going from `NCCc1ccc(O)cc1` [TYRAMINE] to `NCCc1cccc(O)c1`, the Ki rises from 294 µM to 1250 µM (4.3-fold).

Target: T1, Phenylethanolamine N-methyltransferase
Test: In vitro inhibitory activity against bovine phenylethanolamine N-methyl-transferase

Compared with `NC1CCc2c(O)cccc2C1` (stereo unspecified), `NC1CCc2cccc(O)c2C1` (stereo unspecified) is 1.9-fold higher in Ki: 21 µM for the first, 39 µM for the second. The first binds more tightly here.

`COc1cccc2c1C1CC(N)C2C1` (stereo unspecified) and `COc1cccc2c1C1CC2CC1N` (stereo unspecified) cannot be ordered by Ki: greater than 2000 µM for the first, greater than 2000 µM for the second.

Compared with `COc1ccc2c(c1)CCC(N)C2` (stereo unspecified), `COc1ccc2c(c1)CC(N)CC2` (stereo unspecified) is 6.7-fold higher in Ki: 34 µM for the first, 228 µM for the second.

`NC1CCc2ccccc2C1` (stereo unspecified) and `NC1CCc2cc(O)ccc2C1` (stereo unspecified) are within 1.5-fold of each other in Ki: 6.8 µM for the first, 4.7 µM for the second.

Going from `NC12CCC(C1)c1c(O)cccc1C2` (stereo unspecified) to `COc1cccc2c1C1CCC(N)(C2)C1` (stereo unspecified), the Ki rises from 3470 µM to 8420 µM (2.4-fold). The first binds more tightly here.

First: NC12CCC(C1)c1ccc(O)cc1C2 (stereo unspecified)
Second: NC12CCC(C1)c1cc(O)ccc1C2 (stereo unspecified)
The Ki of the first is 11-fold higher: 1270 µM for the first, 111 µM for the second.

`NC1CC2CC1c1cccc(O)c12` (stereo unspecified) and `N[C@@H]1CC2CC1c1c(O)cccc12` (stereo partly specified) cannot be ordered by Ki: greater than 10000 µM for the first, greater than 3000 µM for the second.

First: NC1CC2CC1c1ccccc12 (stereo unspecified)
Second: NC1CC2CC1c1ccc(O)cc12 (stereo unspecified)
The Ki of the first is 1.6-fold higher: 479 µM for the first, 304 µM for the second.

Compared with `COc1ccc2c(c1)C1CC2CC1N` (stereo unspecified), `COc1ccc2c(c1)CC1(N)CCC2C1` (stereo unspecified) is lower in Ki: greater than 2000 µM for the first, 1410 µM for the second. The second binds more tightly here.

`COc1cccc2c1CCC(N)C2` (stereo unspecified) and `COc1cccc2c1CC(N)CC2` (stereo unspecified) are within 1.5-fold of each other in Ki: 157 µM for the first, 144 µM for the second.

Compared with `NCCc1ccccc1` [PHENETHYLAMINE], `NC12CCC(C1)c1ccccc1C2` (stereo unspecified) is 4.1-fold lower in Ki: 854 µM for the first, 206 µM for the second. The second binds more tightly here.

With `COc1ccc2c(c1)C1CCC(N)(C2)C1` (stereo unspecified) the Ki was 389 µM.

Target: T1, Phenylethanolamine N-methyltransferase
Test: In vitro inhibitory activity against Phenylethanolamine N-methyl-transferase (PNMT)

`NC1CCc2ccc(O)cc2C1` (stereo unspecified) showed a Ki of 76 µM.
